According to patent US20100204135A1, “USE OF LVV-HEMORPHIN-6 AND OPTIONALLY AF12198 AS THERAPEUTIC AGENT(S)” (priority 2007, published 2010):
Where no end group is shown, it is not given here.

Test system: drug-resistant Mycobacterium tuberculosis
Assay: Mycobacterium tuberculosis assay
Format: cell-based

Substance	inhibition of the growth of Mycobacterium tuberculosis
Leu-Val-Val-Tyr-Pro-Trp-Thr-Gln-Arg-OH (LVVYPWTQR-OH) [Peptide 1]	100%
Phe-Glu-Trp-Thr-Pro-Gly-Tyr-Trp-Gln-Pro-Tyr-Ala-Leu-Pro-Leu-OH (FEWTPGYWQPYALPL-OH) [Peptide 2]	100%
